In patent US12162861B2, “Dopamine D3 receptor selective antagonists/partial agonists; method of making; and use thereof” (THE UNITED STATES OF AMERICA, AS REPRESENTED BY THE …, priority 2016, dated 2024):
Entries after “also recorded” stand apart in the source; their conditions may differ.

Assays:
[1] = target: cannabinoid CB1 receptor (Homo sapiens, UniProt P21554); assay: Binding to cannabinoid CB1 receptor
[2] = target: opiate delta receptor (Homo sapiens, UniProt P41143); assay: Binding to opiate delta receptor
opiate delta receptor, sequence (P41143 whole entry): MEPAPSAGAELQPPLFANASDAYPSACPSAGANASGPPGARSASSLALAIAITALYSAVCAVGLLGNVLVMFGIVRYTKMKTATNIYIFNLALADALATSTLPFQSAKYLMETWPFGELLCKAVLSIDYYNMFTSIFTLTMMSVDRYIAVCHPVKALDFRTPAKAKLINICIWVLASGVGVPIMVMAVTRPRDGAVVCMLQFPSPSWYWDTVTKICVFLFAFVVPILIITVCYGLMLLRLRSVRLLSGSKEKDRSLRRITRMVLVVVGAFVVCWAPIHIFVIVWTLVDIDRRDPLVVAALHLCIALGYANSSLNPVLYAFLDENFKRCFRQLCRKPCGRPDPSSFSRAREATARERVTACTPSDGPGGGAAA

[3] = Phase I metabolic stability in monkey liver microsomes; type: in vitro ADME, rhesus monkey; conditions: FIG. 1; 10 μM, 0.5 mg/mL microsomes
Procedure: Methods: Phase I metabolic stability assay was conducted in rat and rhesus monkey liver microsomes. For phase I metabolism, the reaction was carried out with 100 mM potassium phosphate buffer, pH 7.4, in the presence of NADPH regenerating system (1.3 mM NADPH, 3.3 mM glucose 6-phosphate, 3.3 mM MgCl2, 0.4 U/mL glucose-6-phosphate dehydrogenase, 50 μM sodium citrate). Reactions in triplicate were initiated by addition of the liver microsomes to the incubation mixture (compound final concentration was 10 μM; 0.5 mg/mL microsomes). Negative controls in the absence of cofactors were carried out to determine the specific cofactor-free degradation. Compound disappearance was monitored via LC/MS/MS. Chromatographic analysis was performed using an Accela™ ultra high-performance system consisting of an analytical pump, and an autosampler coupled with TSQ Vantage mass spectrometer (Thermo Fisher Scientific Inc., Waltham MA). […] The mobile phase used was composed of 0.1% Formic Acid in Acetonitrile and 0.1% Formic Acid in H2O with gradient elution, starting with 10% (organic) linearly increasing to 99% up to 2 min, maintaining at 99% (2-2.5 min) and re-equilibrating to 10% by 2.7 min. The total run time for each analyte was 5.0 min.

[4] = tested on: Long-Evans rats; assay: Oxycodone self-administration in rats; type: in vivo, rat; conditions: for oxycodone self-administration (oxycodone taking): FR1, 5-25 mg/kg i.p., FIG. 3A
Procedure: MATERIALS AND METHODS: Male Long-Evans rats (Charles-River, Raleigh, N.C.) were used. […] All the experimental procedures were consistent with the “Principles of Laboratory Animal Care” published by National Institutes of Health (NIH publication 86-23, 1996) and were approved by the NIDA Animal Care and Use Committee.
Surgery: Rats (300-350 g) used for oxycodone self-administration were first implanted with an intravenous catheter. They were anaesthetized with pentobarbital (30 mg/kg i.p.) supplemented with chloral hydrate (140 mg/kg, i.p.). A small incision was next made to the right of the midline of the neck and the external jugular vein was externalized and an i.v. catheter, made of microrenathane (Braintree Scientific Inc., Braintree, MA, USA) was inserted with its tip reaching right atrium. The catheter was secured to the vein with silk suture and the other end fed subcutaneously around the back of the neck to exit near the back of the skull. The end was slipped over a bent 24-gauge stainless steel cannula (Plastic One Inc., Roanoke, VA, USA) with a threaded head used to secure a dummy cannula and, during experimentation, an infusion line. The catheter and the guide cannula were then secured to the skull with four stainless steel screws threaded into the skull and dental cement and the wound was sutured.
After surgery, the catheters were flushed daily with a gentamicin-heparin-saline solution (30 IU/ml heparin; ICN Biochemicals, Cleveland, OH, USA) as precaution against catheter clogging and infection. The animals were allowed to recover for at least 5 days before the behavioral training started.
Self-administration apparatus and oxycodone self-administration training: Rats in 3 experimental tests were first trained to self-administer oxycodone. The self-administration apparatus and procedures have been described previously (Xi et al., 2004, 2005). […] This infusion time was also served as a timeout period during which the light-tone cue was kept activated and animal' responses on the active lever were recorded but had no scheduled consequence. […]

[5] = Mouse microsomal stability assay; type: in vitro ADME; conditions: mouse liver microsomes, Phase I, 10 μM compound, 0.5 mg/mL microsomes
Procedure: Mouse Microsomal Stability Assay. […] The reaction was carried out with 100 mM potassium phosphate buffer, pH 7.4, in the presence of NADPH regenerating system, (compound final concentration was 10 μM; 0.5 mg/mL microsomes). Positive controls for phase I metabolism (testosterone) were also evaluated. Compound disappearance was monitored over time using a liquid chromatography and tandem mass spectrometry (LC/MS/MS) method. All reactions were sampled in triplicate. Chromatographic analysis was performed using an Accela ultra high-performance system consisting of an analytical pump and an autosampler coupled with a TSQ Vantage mass spectrometer (Thermo Fisher Scientific Inc., Waltham, MA). […] The mobile phase used was composed of 0.1% formic acid in acetonitrile and 0.1% formic acid in H2O with gradient elution, starting with 10% (organic) linearly increasing to 99% up to 2 min, maintaining at 99% (2-2.5 min) and reequilibrating to 10% by 2.7 min. The total run time for each analyte was 4.5 min.

[6] = target: cannabinoid CB2 receptor (Homo sapiens, UniProt P34972); assay: Binding to cannabinoid CB2 receptor
cannabinoid CB2 receptor, sequence (P34972 whole entry): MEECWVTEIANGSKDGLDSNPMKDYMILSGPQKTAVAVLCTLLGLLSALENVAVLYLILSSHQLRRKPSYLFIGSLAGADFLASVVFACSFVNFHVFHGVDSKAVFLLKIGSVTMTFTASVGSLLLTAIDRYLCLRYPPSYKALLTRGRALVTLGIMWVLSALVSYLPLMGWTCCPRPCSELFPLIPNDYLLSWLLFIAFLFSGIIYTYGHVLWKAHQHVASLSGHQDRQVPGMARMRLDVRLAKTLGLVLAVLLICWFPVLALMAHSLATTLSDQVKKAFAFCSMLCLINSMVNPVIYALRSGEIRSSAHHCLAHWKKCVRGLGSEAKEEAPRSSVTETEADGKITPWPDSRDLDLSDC

[7] = target: opiate mu receptor (Homo sapiens, UniProt P35372); assay: Binding to opiate mu receptor
opiate mu receptor, sequence (P35372 whole entry): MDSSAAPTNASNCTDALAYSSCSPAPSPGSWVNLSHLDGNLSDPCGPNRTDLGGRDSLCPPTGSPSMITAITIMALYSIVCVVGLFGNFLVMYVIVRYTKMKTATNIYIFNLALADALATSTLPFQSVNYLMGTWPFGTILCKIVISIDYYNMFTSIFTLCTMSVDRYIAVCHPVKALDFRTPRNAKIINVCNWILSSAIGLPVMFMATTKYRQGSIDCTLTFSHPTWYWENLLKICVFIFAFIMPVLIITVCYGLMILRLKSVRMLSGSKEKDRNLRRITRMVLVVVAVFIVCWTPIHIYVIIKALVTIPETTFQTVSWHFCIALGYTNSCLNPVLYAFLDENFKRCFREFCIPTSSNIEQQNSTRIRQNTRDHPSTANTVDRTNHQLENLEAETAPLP

[8] = tested on: C57BL/6J mice; conditions: listed as (±)-29
Procedure: Twenty-four male mice (22-25 g) with a C57BL/6J genetic background were purchased from the Charles River Laboratories (Raleigh, NC).
Locomotor activity tests were conducted in open-field chambers (43×43×30 cm^3) (Accuscan Instruments, Inc., Columbus, OH, USA). […] On habituation days, the animals were moved to the test room, acclimated there for 10 min, and then placed in their assigned locomotor chambers. […] Then 15 min later, the animals were placed into the test chambers. Their locomotor activities were recorded every 20 min for 2 h using VersaMax version 3.0 software (Accuscan Instruments, Inc.). […] The locomotor activities were recorded for 2 h/day after each oxycodone injection. The locomotor behavioral data are expressed as means (±SEM). […] Posthoc Fisher's least significant difference was used for multiple comparisons. p<0.05 was considered statistically significant.

cannabinoid CB1 receptor, sequence (P21554 whole entry): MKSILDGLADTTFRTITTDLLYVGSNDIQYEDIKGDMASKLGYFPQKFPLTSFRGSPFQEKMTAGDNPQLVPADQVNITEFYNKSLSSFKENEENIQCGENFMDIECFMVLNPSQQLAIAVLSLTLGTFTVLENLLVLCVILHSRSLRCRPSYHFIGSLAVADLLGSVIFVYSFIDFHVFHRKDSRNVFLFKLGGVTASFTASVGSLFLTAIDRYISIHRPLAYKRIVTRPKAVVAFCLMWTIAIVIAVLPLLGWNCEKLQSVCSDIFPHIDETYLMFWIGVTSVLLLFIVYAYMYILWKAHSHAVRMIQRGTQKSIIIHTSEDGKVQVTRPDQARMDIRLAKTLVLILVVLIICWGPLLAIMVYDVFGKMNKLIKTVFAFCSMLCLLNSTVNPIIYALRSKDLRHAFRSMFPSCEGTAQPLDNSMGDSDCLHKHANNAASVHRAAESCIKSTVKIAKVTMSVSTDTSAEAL

## CCc1cc(Cl)c(OC)c(N2CCN(CC(O)CCNC(=O)c3cc4ccccc4[nH]3)CC2)c1 (racemic) [Compound 29, N-(4-(4-(3-chloro-5-ethyl-2-methoxyphenyl)piperazin-1-yl)-3-hydroxybutyl)-1H-indole-2-carboxamide]
[1]
  binding to cannabinoid CB1 receptor: does not bind
[2]
  binding to opiate delta receptor: does not bind
[3]
  metabolic stability in monkey liver microsomes versus PG648: improved metabolic stability as compared to Compound 1; also recorded: surprisingly high metabolic stability
[4]
  oxycodone self-administration (oxycodone taking): attenuated self-administration at 15 and 25 mg/kg
[4]; listed as (±)-29
  oxycodone self-administration (oxycodone taking): attenuating effects
[4]; pretreatment 5-15 mg/kg i.p., oxycodone 0.05 mg/kg/infusion, effect at 15 mg/kg
  acquisition of oxycodone self-administration, number of infusions: significantly lower number of infusions of oxycodone
[5]
  % remaining over 1 h: > 80%
[6]
  binding to cannabinoid CB2 receptor: does not bind
[7]
  binding to opiate mu receptor: does not bind
[8]; mice, 5, 15 mg/kg ip 15 min before oxycodone 4 mg/kg, day 2
  acute oxycodone-induced hyperactivity: dose-dependently inhibited oxycodone-induced hyperactivity
[8]; mice, day 9, oxycodone 4 mg/kg challenge without pretreatment
  oxycodone prime-induced locomotor sensitization after 2 days of withdrawal: long-lasting inhibition in oxycodone-induced increases in locomotion
